As a reminder, the IC50 is the point on the concentration scale where inhibition reaches its midpoint.

For experiment [1], the target named is T1, recombinant human ACC1 (acetyl-CoA carboxylase 1) (Homo sapiens, UniProt Q13085).
T1 construct: NM_198834, amino acids 39—end; FLAG (C); made in house; host or cells: baculovirus-transfected insect cells (Hi5)
As to the kind of experiment: Human ACC1 enzyme assay (HTRF ADP detection).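 Note: ADP by-product quantified by competitive HTRF immunoassay with europium cryptate anti-ADP antibody and d2-labelled ADP, read after 1 h binding at 22 °C, enzyme near 2.5 ng/µl.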 It counts as biochemical. To be noted: 50 μM ATP, 20 μM acetyl-CoA, 15 min pre-incubation, 20 min at 22° C.; read-out: ACC 1 IC50.
Description: The basic principle of the assay is the measurement of adenosine diphosphate (ADP), which is formed as a by-product, by means of an HTRF®-based competitive immunoassay (HTRF=Homogeneous Time Resolved Fluorescence).
(§1) The amount of complex of d2-labelled ADP and europium cryptate-labelled anti-ADP antibody was then determined by measuring the resonance energy transfer of europium cryptate to d2.

Experiment [2] addresses T2, ACC2 (acetyl-CoA carboxylase 2) (Homo sapiens, UniProt O00763).
T2 construct: catalogue no; 50201, amino acids 39—end, expressed in baculovirus-transfected Sf9 insect cells; His (C); purchased BPS Bioscience (San Diego, Calif.) 50201; host or cells: baculovirus-transfected Sf9 insect cells
The experiment in a line: Human ACC2 enzyme assay (HTRF ADP detection). To be noted: 20 μM acetyl-CoA, 15 min pre-incubation, 20 min at 22° C.; read-out: ACC 2 IC50. The experiment is classed as biochemical.
Description: The inhibitory activity of the substances of this invention with regard to acetyl-CoA carboxylase 2 (ACC2) was measured using the ACC2 assay described in the paragraphs below. The basic principle of the assay is the measurement of adenosine diphosphate (ADP), which is formed as a by-product, by means of an HTRF®-based competitive immunoassay (HTRF=Homogeneous Time Resolved Fluorescence).
as §1

A value given as a limit tells only on which side of the number the result lay.

T2 sequence (O00763 39-2458 limits assumed): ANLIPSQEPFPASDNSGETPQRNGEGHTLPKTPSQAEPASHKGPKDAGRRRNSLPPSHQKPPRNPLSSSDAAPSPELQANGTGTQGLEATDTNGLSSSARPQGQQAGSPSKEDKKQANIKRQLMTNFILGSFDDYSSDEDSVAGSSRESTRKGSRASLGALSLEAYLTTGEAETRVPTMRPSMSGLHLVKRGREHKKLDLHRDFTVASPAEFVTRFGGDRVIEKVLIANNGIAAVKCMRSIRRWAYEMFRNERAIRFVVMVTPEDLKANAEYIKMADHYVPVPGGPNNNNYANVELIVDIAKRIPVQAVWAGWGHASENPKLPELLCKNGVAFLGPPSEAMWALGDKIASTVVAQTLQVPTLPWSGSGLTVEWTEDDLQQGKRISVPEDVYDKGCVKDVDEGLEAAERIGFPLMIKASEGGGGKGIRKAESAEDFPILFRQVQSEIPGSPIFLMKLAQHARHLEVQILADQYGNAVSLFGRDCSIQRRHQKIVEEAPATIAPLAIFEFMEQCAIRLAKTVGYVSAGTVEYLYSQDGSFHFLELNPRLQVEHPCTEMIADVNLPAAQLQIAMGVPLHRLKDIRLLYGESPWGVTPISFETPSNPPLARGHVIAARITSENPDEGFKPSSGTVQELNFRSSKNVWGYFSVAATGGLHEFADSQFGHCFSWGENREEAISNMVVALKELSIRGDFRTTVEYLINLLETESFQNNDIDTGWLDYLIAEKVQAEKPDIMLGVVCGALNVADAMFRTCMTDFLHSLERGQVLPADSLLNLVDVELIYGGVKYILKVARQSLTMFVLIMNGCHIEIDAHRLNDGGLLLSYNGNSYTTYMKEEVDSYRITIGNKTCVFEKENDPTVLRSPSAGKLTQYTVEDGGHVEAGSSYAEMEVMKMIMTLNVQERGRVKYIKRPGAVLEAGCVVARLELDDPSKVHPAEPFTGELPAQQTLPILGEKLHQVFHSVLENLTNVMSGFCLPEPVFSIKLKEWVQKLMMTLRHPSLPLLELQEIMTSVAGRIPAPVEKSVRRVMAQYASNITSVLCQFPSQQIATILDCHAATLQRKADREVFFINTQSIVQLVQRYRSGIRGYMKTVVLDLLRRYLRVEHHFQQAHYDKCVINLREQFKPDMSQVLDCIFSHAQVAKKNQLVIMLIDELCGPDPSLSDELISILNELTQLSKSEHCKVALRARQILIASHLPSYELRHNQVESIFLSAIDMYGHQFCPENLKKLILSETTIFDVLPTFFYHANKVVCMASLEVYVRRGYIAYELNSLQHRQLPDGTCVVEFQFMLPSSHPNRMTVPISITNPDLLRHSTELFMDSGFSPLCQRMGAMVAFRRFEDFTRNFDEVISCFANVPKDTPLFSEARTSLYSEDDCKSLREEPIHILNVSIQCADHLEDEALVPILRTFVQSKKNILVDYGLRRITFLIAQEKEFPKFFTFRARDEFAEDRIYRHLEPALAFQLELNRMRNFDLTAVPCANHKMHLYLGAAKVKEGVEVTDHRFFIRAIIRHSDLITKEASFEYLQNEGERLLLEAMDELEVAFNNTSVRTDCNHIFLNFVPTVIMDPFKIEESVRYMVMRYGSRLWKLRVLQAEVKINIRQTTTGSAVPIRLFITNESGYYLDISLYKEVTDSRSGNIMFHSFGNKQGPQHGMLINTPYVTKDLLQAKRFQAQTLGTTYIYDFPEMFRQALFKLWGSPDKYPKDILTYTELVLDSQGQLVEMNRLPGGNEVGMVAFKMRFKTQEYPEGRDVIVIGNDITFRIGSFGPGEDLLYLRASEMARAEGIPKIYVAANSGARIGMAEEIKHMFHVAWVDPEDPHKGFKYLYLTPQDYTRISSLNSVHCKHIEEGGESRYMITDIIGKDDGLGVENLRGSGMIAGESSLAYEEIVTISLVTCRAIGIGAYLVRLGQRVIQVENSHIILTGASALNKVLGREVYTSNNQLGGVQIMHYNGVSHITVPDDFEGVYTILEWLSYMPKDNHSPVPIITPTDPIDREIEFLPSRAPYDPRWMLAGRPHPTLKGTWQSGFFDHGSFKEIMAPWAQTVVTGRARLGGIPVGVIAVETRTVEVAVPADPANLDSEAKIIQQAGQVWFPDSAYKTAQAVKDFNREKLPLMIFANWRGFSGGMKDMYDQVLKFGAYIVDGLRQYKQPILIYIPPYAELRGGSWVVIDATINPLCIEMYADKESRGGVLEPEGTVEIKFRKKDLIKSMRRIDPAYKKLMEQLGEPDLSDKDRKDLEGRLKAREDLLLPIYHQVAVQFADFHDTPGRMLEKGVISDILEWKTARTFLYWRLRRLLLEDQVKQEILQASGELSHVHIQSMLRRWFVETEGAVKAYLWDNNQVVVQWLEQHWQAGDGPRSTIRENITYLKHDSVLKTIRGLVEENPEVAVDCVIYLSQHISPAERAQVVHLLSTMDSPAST

With `Cc1ccc(-c2ccc(Cl)cc2)cc1-c1c(O)c2ccccc2[nH]c1=O` [Example 9-5, 3-(4′-chloro-4-methylbiphenyl-3-yl)-4-hydroxyquinolin-2(1H)-one], the IC50 in experiment [1] is 0.625 µM; in experiment [2] it was > 20 µM.
With `Cc1ccc(-c2ccc(C(F)(F)F)cc2)cc1-c1c(O)c2ccc(Cl)cc2[nH]c1=O` [Example 9-6, 7-chloro-4-hydroxy-3-[4-methyl-4′-(trifluoromethyl)biphenyl-3-yl]quinolin-2(1H)-one], the results for the IC50 in experiment [1] and in experiment [2] were 1.09 µM and 18.9 µM, respectively.
Consider `Cc1ccc(-c2ccc(Cl)cc2)cc1-c1c(O)c2ccc(F)cc2[nH]c1=O` [Example 9-8, 3-(4′-chloro-4-methylbiphenyl-3-yl)-7-fluoro-4-hydroxyquinolin-2(1H)-one], for which the IC50 was 0.418 µM in experiment [1] and > 20 µM in experiment [2].
In the case of `Cc1ccc(-c2ccc(F)cc2)cc1-c1c(O)c2ccc(F)cc2[nH]c1=O` [Example 9-9, 7-fluoro-3-(4′-fluoro-4-methylbiphenyl-3-yl)-4-hydroxyquinolin-2(1H)-one], the results for the IC50 in experiment [1] and in experiment [2] were 0.863 µM and > 20 µM, respectively.
For the compound `Cc1ccc(-c2ccc(C(F)(F)F)cc2)cc1-c1c(O)c2ccc(F)cc2[nH]c1=O` [Example 9-10, 7-fluoro-4-hydroxy-3-[4-methyl-4′-(trifluoromethyl)biphenyl-3-yl]quinolin-2(1H)-one], the results for the IC50 in experiment [1] and in experiment [2] were 1.69 µM and > 20 µM, respectively.
Turning to `Cc1ccc(-c2ccc(Cl)cc2)cc1-c1c(O)c2ccc(Cl)cc2[nH]c1=O` [Example 9-11, 7-chloro-3-(4′-chloro-4-methylbiphenyl-3-yl)-4-hydroxyquinolin-2(1H)-one], the values for the IC50 in experiment [1] and in experiment [2] were 0.42 µM and 4.12 µM, respectively.
As to `O=c1[nH]c2cc(Cl)ccc2c(O)c1-c1cc(-c2ccc(Cl)cc2)ccc1Cl` [Example 9-13, 7-chloro-3-(4,4′-dichlorobiphenyl-3-yl)-4-hydroxyquinolin-2(1H)-one], the IC50 in experiment [1] was found to be 0.329 µM; in experiment [2], 5.56 µM.
The corresponding values for `Cc1ccc(-c2ccc(Cl)cc2)cc1C1=C(O)C(C)(C)C(C)(C)NC1=O` [Example 9-14, 3-(4′-chloro-4-methylbiphenyl-3-yl)-4-hydroxy-5,5,6,6-tetramethyl-5,6-dihydropyridin-2(1H)-one] are 1.64 µM and 5.62 µM.
Regarding `CC1(C)OC(=O)C(c2cc(-c3ccc(Cl)cc3)ccc2Cl)=C(O)C1(C)C` [Example 10-1, 3-(4,4′-dichlorobiphenyl-3-yl)-4-hydroxy-5,5,6,6-tetramethyl-5,6-dihydro-2H-pyran-2-one], the values for the IC50 in experiment [1] and in experiment [2] were 1.37 µM and > 20 µM, respectively.
Take `Cc1ccc(-c2ccc(Cl)cc2)cc1C1=C(O)C(C)(C)C(C)(C)OC1=O` [Example 10-2, 3-(4′-chloro-4-methylbiphenyl-3-yl)-4-hydroxy-5,5,6,6-tetramethyl-5,6-dihydro-2H-pyran-2-one]: the values for the IC50 in experiment [1] and in experiment [2] were 0.586 µM and > 20 µM, respectively.
Turning to `Cc1ccc(-c2ccc(Cl)cc2)cc1C1C(=O)N(C)OC(C)(C)C1=O` (centres unmarked) [Example 11-1, 4-(4′-chloro-4-methylbiphenyl-3-yl)-2,6,6-trimethyl-1,2-oxazinane-3,5-dione], the IC50 in experiment [1] was 4 µM; in experiment [2] it was > 20 µM.
The matching figures for `CCc1cc(-c2ccccc2)cc(Cl)c1C1C(=O)N2CCOCCN2C1=O` [Example C-1, reference compound]: > 20 µM and > 20 µM.
Regarding `COC1CCC2(CC1)NC(=O)C(c1c(C)cc(-c3ccc(Cl)cc3)cc1C)=C2O` (centres unmarked) [Example C-2, reference compound], the IC50 in experiment [1] and in experiment [2] was > 20 µM each time.
Take `COC1CCC2(CC1)NC(=O)C(c1c(C)cc(OC(F)(F)F)cc1Cl)=C2O` (centres unmarked) [Example C-3, reference compound]: the IC50 in experiment [1] and in experiment [2] was > 20 µM throughout.
Regarding `CCc1cc(C)cc(Br)c1C1=C(O)C2(CCCCC2)OC1=O` [Example C-4, reference compound], the values for the IC50 in experiment [1] and in experiment [2] were 5.4 µM and > 20 µM, respectively.
The matching figures for “(5r,8r)-3-(4′-chloro-2,4-dimethylbiphenyl-3-yl)-4-hydroxy-8-methoxy-8-methyl-1-azaspiro[4.5]dec-3-en-2-one [Example 1-87]”: 0.54 µM and 7.3 µM.

Source of the values: patent publication US20120129833A1, “CYCLIC KETOENOLS FOR THERAPY” (BAYER PHARMA AKTIENGESELLSCHAFT, priority 2010, published 2012).
